Assay: Storage stability of microencapsulated fish oil fatty acids
Type: physicochemical
Excerpt: We have performed tests of storage ability while remaining the active ingredients unchanged.

## CCCCCCCCCCCCCCCC(=O)O [Palmitic acid]
D = 0
  % in the oil: 1.1 % in the oil
D = 30, 4° C.
  % in the oil: 1.1 % in the oil
D = 30, 25° C.
  % in the oil: 1.1 % in the oil
D = 30, 45° C.
  % in the oil: 1.1 % in the oil
D = 60, 45° C.
  % in the oil: 1.1 % in the oil

## CCCCCCCCCCCCCCCCCC(=O)O [Stearic acid]
D = 0
  % in the oil: 1.4 % in the oil
D = 30, 4° C.
  % in the oil: 1.4 % in the oil
D = 30, 25° C.
  % in the oil: 1.4 % in the oil
D = 30, 45° C.
  % in the oil: 1.3 % in the oil
D = 60, 45° C.
  % in the oil: 1.3 % in the oil

## CC/C=C\C/C=C\C/C=C\CCCCCCCC(=O)O [alpha-linolenic acid]
D = 0
  % in the oil: 2.7 % in the oil
D = 30, 4° C.
  % in the oil: 2.5 % in the oil
D = 30, 25° C.
  % in the oil: 2.6 % in the oil
D = 30, 45° C.
  % in the oil: 2.5 % in the oil
D = 60, 45° C.
  % in the oil: 2.4 % in the oil

## CCCCC/C=C\C/C=C\CCCCCCCC(=O)O [linoleic acid]
D = 0
  % in the oil: 2.8 % in the oil
D = 30, 4° C.
  % in the oil: 2.6 % in the oil
D = 30, 25° C.
  % in the oil: 2.6 % in the oil
D = 30, 45° C.
  % in the oil: 2.5 % in the oil
D = 60, 45° C.
  % in the oil: 2.5 % in the oil

## CCCCCCCC/C=C\CCCCCCCC(=O)O [oleic acid]
D = 0
  % in the oil: 2.9 % in the oil
D = 30, 4° C.
  % in the oil: 2.7 % in the oil
D = 30, 25° C.
  % in the oil: 2.6 % in the oil
D = 30, 45° C.
  % in the oil: 2.6 % in the oil
D = 60, 45° C.
  % in the oil: 2.4 % in the oil

From patent US20070077308A1, “CONTINUOUS MULTI-MICROENCAPSULATION PROCESS FOR IMPROVING THE STABILITY AND STORAGE LIFE OF BIOLOGICALLY ACTIVE INGREDIENTS” (priority 2003, published 2007)
